Results as given in patent US7595340B2, “Serotonin and norepinephrine reuptake inhibitor and uses thereof” (Wyeth, priority 2005, dated 2009).
≈ marks a conversion by molar mass, not a printed value.

Experiments:
[1] = biological target: human serotonin transporter (Homo sapiens, UniProt P31645); assay: human serotonin transporter assay (in-house); type: binding; settings: initial experiments, in-house assays
Source text: In initial experiments using in-house assays, 4-[2-dimethylamino-1-(4-hydroxy-phenyl)-ethyl]-tetrahydro-pyran-4-ol has been found active in a human serotonin transporter assay.

Hygroscopicity profile = type: physicochemical
Source text: FIG. 2 provides a chart of the hygroscopicity profile of 4-[2-dimethylamino-1-(4-phenyl)-ethyl-tetrahydro-pyran-4-ol.

pH-solubility profile = type: physicochemical; settings: aqueous solution, thermodynamic from solid
Source text: FIG. 4 provides a chart of the pH - solubility profile of 4-[2-dimethylamino-1-(4-phenyl)-ethyl-tetrahydro-pyran-4-ol.

[2] = Solution stability in aqueous solutions; type: physicochemical; settings: room temperature, all aqueous solutions (pH 1.25-8.8)

human serotonin transporter, sequence (P31645 whole entry): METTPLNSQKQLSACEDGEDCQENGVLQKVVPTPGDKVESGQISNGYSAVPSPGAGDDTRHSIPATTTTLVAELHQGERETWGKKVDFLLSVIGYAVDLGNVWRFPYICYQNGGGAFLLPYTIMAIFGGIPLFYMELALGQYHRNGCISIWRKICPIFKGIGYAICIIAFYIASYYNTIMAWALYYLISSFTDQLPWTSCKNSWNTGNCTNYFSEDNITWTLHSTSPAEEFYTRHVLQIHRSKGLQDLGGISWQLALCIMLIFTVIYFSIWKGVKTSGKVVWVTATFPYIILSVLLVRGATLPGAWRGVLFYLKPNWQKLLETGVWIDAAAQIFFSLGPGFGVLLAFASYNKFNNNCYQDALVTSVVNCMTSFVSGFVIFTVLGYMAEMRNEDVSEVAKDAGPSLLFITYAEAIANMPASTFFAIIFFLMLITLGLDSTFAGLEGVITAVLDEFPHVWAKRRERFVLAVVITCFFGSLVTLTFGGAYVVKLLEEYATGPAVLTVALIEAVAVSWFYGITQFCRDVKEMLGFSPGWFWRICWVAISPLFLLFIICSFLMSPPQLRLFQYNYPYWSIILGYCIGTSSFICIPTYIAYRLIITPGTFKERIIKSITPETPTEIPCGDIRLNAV

CN(C)CC(c1ccc(O)cc1)C1(O)CCOCC1 (stereo not drawn) [4-[2-Dimethylamino-1-(4-Hydroxy-Phenyl)-ethyl]-Tetrahydro-Pyran-4-ol]
activity in human serotonin transporter assay [1]: active | Hygroscopicity (Hygroscopicity profile): Non-hygroscopic | Hygroscopicity, weight gain (Hygroscopicity profile; @ 70% RH): 2% | Hygroscopicity, weight gain (Hygroscopicity profile; @ 90% RH, weight gain was lost when returned to 10% RH or 0% RH): 6% | solubility (pH-solubility profile; pH 4.4, aqueous buffer, Final pH 4.40): 3910 µg/mL (≈ 14.7 mM) | solubility (pH-solubility profile; pH 7.1, aqueous buffer, Final pH 7.10): 3470 µg/mL (≈ 13.1 mM) | solubility (pH-solubility profile; pH 8.8, aqueous buffer, Final pH 8.80): 2960 µg/mL (≈ 11.2 mM) | solubility (pH-solubility profile; simulated gastric fluid, Final pH 1.25): 13600 µg/mL (≈ 51.1 mM) | Solution Stability (time stable) [2]: at least 24 hours
